Counter-ions that a name gives are not always drawn.
What was measured:
[1] = Slurry experiments, thermodynamic stability of lorlatinib maleate hydrate (Form 2) in a variety of solvent systems; format: physicochemical
Method: The thermodynamic stability of Form 2 was further assessed in variety of solvent systems at temperatures of 5° C. to 40° C. as shown in Table 11. Suspensions of Form 2 were prepared under the indicated conditions and equilibrated for 2 weeks. Resultant solids were analyzed by PXRD. […] Formation of new materials in ethanol and methanol is believed to be a solvated form.

[2] = Physical stability of Form 1 drug product vs. acetic acid solvate drug product; details: drug product
Source text: The physical stabilities of Form 1 and lorlatinib acetic acid solvate as drug product were investigated under a variety of conditions.

C[C@H]1Oc2cc(cnc2N)-c2c(nn(C)c2C#N)CN(C)C(=O)c2ccc(F)cc21 [lorlatinib maleate hydrate (Form 2), (10R)-7-amino-12-fluoro-2,10,16-trimethyl-15-oxo-10,15,16,17-tetrahydro-2H-8,4-(metheno)pyrazolo[4,3-h][2,5,11]benzoxadiazacyclotetradecine-3-carbonitrile (PF-06463922) Maleate Hydrate (Form 2)]
Slurry output, solid form by PXRD ([1]; 1,4-dioxane, Aw 0, 5° C., 2 weeks): Form 2 | Slurry output, solid form by PXRD ([1]; 1,4-dioxane, Aw 0, 40° C., 2 weeks): Form 2 | Slurry output, solid form by PXRD ([1]; 1,4-dioxane, Aw 0, RT, 2 weeks): Form 2 | Slurry output, solid form by PXRD ([1]; EtOAc, Aw 0, 5° C., 2 weeks): Form 2 | Slurry output, solid form by PXRD ([1]; EtOAc, Aw 0, 40° C., 2 weeks): Form 2 | Slurry output, solid form by PXRD ([1]; EtOAc, Aw 0, RT, 2 weeks): Form 2 | Slurry output, solid form by PXRD ([1]; EtOAc/water, Aw 0.1, 5° C., 2 weeks): Form 2 | Slurry output, solid form by PXRD ([1]; EtOAc/water, Aw 0.1, 40° C., 2 weeks): Form 2 | Slurry output, solid form by PXRD ([1]; EtOAc/water, Aw 0.1, RT, 2 weeks): Form 2 | Slurry output, solid form by PXRD ([1]; EtOAc/water, Aw 0.3, 5° C., 2 weeks): Form 2 | Slurry output, solid form by PXRD ([1]; EtOAc/water, Aw 0.3, 40° C., 2 weeks): Form 2 | Slurry output, solid form by PXRD ([1]; EtOAc/water, Aw 0.3, RT, 2 weeks): Form 2 | Slurry output, solid form by PXRD ([1]; EtOAc/water, Aw 0.75, 5° C., 2 weeks): Form 2 | Slurry output, solid form by PXRD ([1]; EtOAc/water, Aw 0.75, 40° C., 2 weeks): Form 2 | Slurry output, solid form by PXRD ([1]; EtOAc/water, Aw 0.75, RT, 2 weeks): Form 2 | Slurry output, solid form by PXRD ([1]; Ethanol, Aw 0, 5° C., 2 weeks): Form 2 | Slurry output, solid form by PXRD ([1]; Ethanol, Aw 0, 40° C., 2 weeks): solvate | Slurry output, solid form by PXRD ([1]; MeOAc, Aw 0, 5° C., 2 weeks): Form 2 | Slurry output, solid form by PXRD ([1]; MeOAc, Aw 0, 40° C., 2 weeks): Form 2 | Slurry output, solid form by PXRD ([1]; MeOAc, Aw 0, RT, 2 weeks): Form 2 | Slurry output, solid form by PXRD ([1]; TFE, Aw 0, 5° C., 2 weeks): Form 2 | Slurry output, solid form by PXRD ([1]; TFE, Aw 0, 40° C., 2 weeks): amorphous | Slurry output, solid form by PXRD ([1]; TFE, Aw 0, RT, 2 weeks): Form 2 | Slurry output, solid form by PXRD ([1]; acetone, Aw 0, 5° C., 2 weeks): Form 2 | Slurry output, solid form by PXRD ([1]; acetone, Aw 0, 40° C., 2 weeks): Form 2 | Slurry output, solid form by PXRD ([1]; acetone, Aw 0, RT, 2 weeks): Form 2 | Slurry output, solid form by PXRD ([1]; acetone/water, Aw 0.1, 5° C., 2 weeks): Form 2 | Slurry output, solid form by PXRD ([1]; acetone/water, Aw 0.1, 40° C., 2 weeks): Form 2 | Slurry output, solid form by PXRD ([1]; acetone/water, Aw 0.1, RT, 2 weeks): Form 2 | Slurry output, solid form by PXRD ([1]; acetone/water, Aw 0.3, 5° C., 2 weeks): Form 2 | Slurry output, solid form by PXRD ([1]; acetone/water, Aw 0.3, 40° C., 2 weeks): Form 2 | Slurry output, solid form by PXRD ([1]; acetone/water, Aw 0.3, RT, 2 weeks): Form 2 | Slurry output, solid form by PXRD ([1]; acetone/water, Aw 0.75, 5° C., 2 weeks): Form 2 | Slurry output, solid form by PXRD ([1]; acetone/water, Aw 0.75, 40° C., 2 weeks): Form 2 | Slurry output, solid form by PXRD ([1]; acetone/water, Aw 0.75, RT, 2 weeks): Form 2 | Slurry output, solid form by PXRD ([1]; acetone/water, Aw 0.9, 5° C., 2 weeks): Form 2 | Slurry output, solid form by PXRD ([1]; acetone/water, Aw 0.9, RT, 2 weeks): Form 2 | Slurry output, solid form by PXRD ([1]; acetonitrile, Aw 0, 5° C., 2 weeks): Form 2 | Slurry output, solid form by PXRD ([1]; acetonitrile, Aw 0, 40° C., 2 weeks): Form 2 | Slurry output, solid form by PXRD ([1]; acetonitrile, Aw 0, RT, 2 weeks): Form 2 | Slurry output, solid form by PXRD ([1]; methanol, Aw 0, 5° C., 2 weeks): Form 2 | Slurry output, solid form by PXRD ([1]; methanol/water, Aw 0.1, 5° C., 2 weeks): Form 2 | Slurry output, solid form by PXRD ([1]; methanol/water, Aw 0.1, 40° C., 2 weeks): solvate | Slurry output, solid form by PXRD ([1]; methanol/water, Aw 0.1, RT, 2 weeks): Form 2 | Slurry output, solid form by PXRD ([1]; methanol/water, Aw 0.3, 5° C., 2 weeks): Form 2 | Slurry output, solid form by PXRD ([1]; methanol/water, Aw 0.3, 40° C., 2 weeks): solvate | Slurry output, solid form by PXRD ([1]; methanol/water, Aw 0.3, RT, 2 weeks): Form 2 | Slurry output, solid form by PXRD ([1]; methanol/water, Aw 0.75, 5° C., 2 weeks): Form 2 | Slurry output, solid form by PXRD ([1]; methanol/water, Aw 0.75, 40° C., 2 weeks): Form 2 | Slurry output, solid form by PXRD ([1]; methanol/water, Aw 0.75, RT, 2 weeks): Form 2 | Conversion to Form 1 in slurry (summary) ([1]; variety of solvent systems, 5° C. to 40° C., 2 weeks): No conversion to Form 1 was detected | Thermodynamic stability (summary) ([1]; wide range of water activities and solvent conditions): thermodynamically stable

CC(=O)O.C[C@H]1Oc2cc(cnc2N)-c2c(nn(C)c2C#N)CN(C)C(=O)c2ccc(F)cc21 [lorlatinib acetic acid solvate, reference compound]
impurity (solid phase impurity), physical stability of drug product ([2]; 50° C./75% RH, 2 weeks): ~30% impurity | impurity (solid phase impurity), physical stability of drug product ([2]; 70° C./10% RH, 3 weeks): ~80% impurity | impurity (solid phase impurity), physical stability of drug product ([2]; 70° C./40% RH, 2 weeks): ~80% impurity | impurity (solid phase impurity), physical stability of drug product ([2]; 70° C./75% RH, 1 week): ~80% impurity
